Columns and labels:
[1] = tested on: ESO26 (Esophageal Adenocarcinoma); test: combination Emax (second highest fraction inhibited in the dose matrix, 72 h); higher = more inhibition; extreme values may be limits of the assay
In short: (§1)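 Cell lines in DMEM/F12 or RPMI with 10% FBS were plated in 1536-well plates, held 24 hours at 37°C, 5% CO2, then given two-drug dose matrices for 72 hours (DMSO typically 0.2%). Viability was read by CellTiter-Glo 2.0 luminescence and scaled as inhibition from 0 (vehicle wells) to 1 (blank wells). Combination Emax is the second-highest inhibition in the matrix; Bliss excess is observed combination effect minus expected EA + EB − EA·EB, EA and EB being single-agent effects.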

5637 (Bladder Carcinoma) = test: as above
In short: as §1

[2] = tested on: Jurkat (T-Lymphoblastic Leukemia); test: as above
In short: as §1

[3] = tested on: OACp4C (Esophageal Adenocarcinoma); test: as above
In short: as §1

[4] = tested on: CA46 (Burkitt's Lymphoma); test: as above
In short: as §1

[5] = tested on: KYSE-140 (Esophageal Squamous Cell Carcinoma); test: as above
In short: as §1

[6] = tested on: NCI-H2228 (Lung Adenocarcinoma); test: as above
In short: as §1

NB13 (Neuroblastoma) = test: as above
In short: as §1

[7] = tested on: GCT (Other Solid Carcinomas); test: as above
In short: as §1

[8] = tested on: JIMT-1 (Breast Carcinoma); test: as above
In short: as §1

[9] = tested on: HCC1428 (Breast Carcinoma); test: as above
In short: as §1

[10] = tested on: HT55 (Colorectal Carcinoma); test: as above
In short: as §1

[11] = tested on: NCI-H716 (Colorectal Carcinoma); test: as above
In short: as §1

769-P (Kidney Carcinoma) = test: Bliss excess, mean over the matrix (fraction); higher = more synergy
In short: as §1

[12] = tested on: MDA-MB-436 (Breast Carcinoma); test: as above
In short: as §1

IM-9 (Non-Cancerous) = test: as above
In short: as §1

[13] = tested on: LU-165 (Small Cell Lung Carcinoma); test: as above
In short: as §1

[14] = tested on: SK-HEP-1 (Hepatocellular Carcinoma); test: as above
In short: as §1

[15] = tested on: CGTH-W-1 (Thyroid Gland Carcinoma); test: as above
In short: as §1

[16] = tested on: A2780 (Ovarian Carcinoma); test: as above
In short: as §1
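Wherever Bliss excess, mean over the matrix is given: after 72 h of two-drug dosing.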

SMILES | combination Emax [1] | combination Emax (5637 (Bladder Carcinoma)) | combination Emax [2] | combination Emax [3] | combination Emax [4] | combination Emax [5] | combination Emax [6] | combination Emax (NB13 (Neuroblastoma)) | combination Emax [7] | combination Emax [8] | combination Emax [9] | combination Emax [10] | combination Emax [11] | Bliss excess (769-P (Kidney Carcinoma)) | Bliss excess [12] | Bliss excess (IM-9 (Non-Cancerous)) | Bliss excess [13] | Bliss excess [14] | Bliss excess [15] | Bliss excess [16]
CN(CCO)CC[C@H](CSc1ccccc1)Nc1ccc(S(=O)(=O)NC(=O)c2ccc(N3CCC([C@@H](O)c4ccccc4-c4ccc(Cl)cc4)CC3)cc2)cc1S(=O)(=O)C(F)(F)F [AZD4320] + C[C@@H](Nc1cc(F)cc(F)c1)c1cc(C(=O)N(C)C)cc2c(=O)cc(N3CCOCC3)oc12 [AZD8186] (first compound max 1 µM, 7x7, partner max 3 µM) | 0.325 | 0.672 | 0.842 | 0.916 | 0.196 | 0.401 | 0.329 | 1 | 0.442 | 0.316 | 0.525 | 0.422 | 0.285 | 0.0227 | 0.0429 | 0.0079 | -0.0236 | 0.0099 | 0.0304 | 0.0202
CN(CCO)CC[C@H](CSc1ccccc1)Nc1ccc(S(=O)(=O)NC(=O)c2ccc(N3CCC([C@@H](O)c4ccccc4-c4ccc(Cl)cc4)CC3)cc2)cc1S(=O)(=O)C(F)(F)F [AZD4320] + Cc1cc2ncnn2cc1Nc1ncc2c(n1)n(C1CCOCC1)c(=O)n2C [AZD7648] (first compound max 1 µM, 7x7, partner max 10 µM) | 0.0775 | 0.172 | 0.655 | 0.906 | 0.306 | 0.203 | 0.296 | 1 | 0.25 | 0.225 | 0.584 | 0.196 | 0.209 | -0.0572 | -0.0488 | 0.0473 | 0.0018 | -0.051 | -0.0436 | -0.0469
CN(CCO)CC[C@H](CSc1ccccc1)Nc1ccc(S(=O)(=O)NC(=O)c2ccc(N3CCC([C@@H](O)c4ccccc4-c4ccc(Cl)cc4)CC3)cc2)cc1S(=O)(=O)C(F)(F)F [AZD4320] + Cn1cnc2c(F)c(Nc3ccc(Br)cc3Cl)c(C(=O)NOCCO)cc21 [Selumetinib] (first compound max 1 µM, 7x7, partner max 3 µM) | 0.3 | 0.782 | 0.798 | 0.967 | 0.19 | 0.289 | 0.203 | 1 | 0.352 | 0.268 | 0.559 | 0.721 | 0.582 | 0.0392 | -0.0388 | 0.051 | -0.0155 | 0.0008 | 0.0043 | 0.0111
Cc1cc2ncnn2cc1Nc1ncc2c(n1)n(C1CCOCC1)c(=O)n2C [AZD7648] + C=CCn1c(=O)c2cnc(Nc3ccc(N4CCN(C)CC4)cc3)nc2n1-c1cccc(C(C)(C)O)n1 [AZD1775] (first compound max 10 µM, partner max 1 µM) | 0.466 | 0.792 | 0.886 | 0.814 | 0.693 | 0.838 | 0.561 | 0.91 | 0.452 | 0.721 | 0.238 | 0.341 | 0.487 | -0.0082 | -0.0189 | -0.0659 | 0.0491 | 0.0387 | 0.0025 | 0.0088
Cc1cc2ncnn2cc1Nc1ncc2c(n1)n(C1CCOCC1)c(=O)n2C [AZD7648] + CCN(CCO)CCCOc1ccc2c(Nc3cc(CC(=O)Nc4cccc(F)c4)[nH]n3)ncnc2c1 [AZD2811] (first compound max 10 µM, 7x7, partner max 1 µM) | 0 | 0.648 | 0.232 | 0.63 | 0.418 | 0.353 | 0.434 | 0.518 | 0.312 | 0.348 | 0.326 | 0.229 | 0.336 | 0.0313 | -0.0452 | -0.0432 | -0.0339 | 0.0517 | 0.0363 | 0.0122
Cc1cc2ncnn2cc1Nc1ncc2c(n1)n(C1CCOCC1)c(=O)n2C [AZD7648] + CN(C)CCCOc1ccc(-c2ccc3ncc4c(c3c2)n(C2CCOCC2)c(=O)n4C)cn1 [AZD0156] (first compound max 10 µM, 7x7, partner max 1 µM) | 0 | 0.153 | 0.23 | 0.329 | 0.288 | 0.216 | 0.407 | 0.303 | 0.343 | 0.348 | 0.238 | 0.169 | 0.251 | -0.0086 | -0.0147 | -0.0509 | 0.0071 | -0.0146 | 0.0015 | -0.0148
Cc1cc2ncnn2cc1Nc1ncc2c(n1)n(C1CCOCC1)c(=O)n2C [AZD7648] + C[C@@H]1COCCN1C2=NC(=NC(=C2)C3(CC3)[S@](=N)(=O)C)C4=C5C=CNC5=NC=C4 [AZD6738] (first compound max 10 µM, 7x7, partner max 10 µM) | 0.234 | 0.632 | 0.814 | 0.666 | 0.492 | 0.927 | 0.514 | 0.919 | 0.245 | 0.788 | 0.201 | 0.429 | 0.539 | 0.0264 | 0.0316 | -0.0417 | 0.0351 | 0.0239 | 0.0191 | 0.0061
Cc1cc2ncnn2cc1Nc1ncc2c(n1)n(C1CCOCC1)c(=O)n2C [AZD7648] + O=C(c1cc(Cc2n[nH]c(=O)c3ccccc23)ccc1F)N1CCN(C(=O)C2CC2)CC1 [Olaparib] (first compound max 10 µM, 7x7, partner max 10 µM) | 0.155 | 0.25 | 0.508 | 0.363 | 0.221 | 0.197 | 0.353 | 0.263 | 0.243 | 0.252 | 0.147 | 0.129 | 0.258 | -0.024 | -0.0522 | -0.0144 | -0.102 | -0.0428 | -0.0412 | -0.0213
Cc1nc(Nc2ncc(C(=O)Nc3c(C)cccc3Cl)s2)cc(N2CCN(CCO)CC2)n1 [Dasatinib] + CC(=O)Nc1cccc(-n2c(=O)n(C3CC3)c(=O)c3c(Nc4ccc(I)cc4F)n(C)c(=O)c(C)c32)c1 [Trametinib] (first compound max 2 µM, 7x7, partner max 1 µM) | 0.464 | 0.973 | 0.157 | 0.995 | 0.306 | 0.522 | 0.737 | 0.169 | 0.554 | 0.779 | 0.205 | 0.751 | 0.472 | -0.0331 | -0.044 | -0.0439 | -0.04 | -0.0294 | -0.0129 | 0.029
COc1cc2ncnc(Nc3ccc(F)c(Cl)c3)c2cc1OCCCN1CCOCC1 [Gefitinib] + CC(C)n1c(=O)n(C)c2cnc3cc(F)c(-c4ccc(OCCCN5CCCCC5)nc4)cc3c21 [AZD1390] (first compound max 10 µM, 7x7, partner max 0.3 µM) | 0.571 | 0.495 | 0.199 | 0.572 | 0.297 | 0.534 | 0.203 | 0.178 | 0.12 | 0.491 | 0.101 | 0.353 | 0.361 | -0.0722 | -0.0402 | -0.0511 | -0.0477 | 0.0092 | -0.0417 | -0.0704
COc1cc2c(cc1OCCCCCOc1cc3c(cc1OC)C(=O)N1C=C(C)C[C@H]1C=N3)N=C[C@@H]1CC(C)=CN1C2=O [SG3199] + O=C(c1cc(Cc2n[nH]c(=O)c3ccccc23)ccc1F)N1CCN(C(=O)C2CC2)CC1 [Olaparib] (first compound max 0.001 µM, 7x7, partner max 10 µM) | 0.272 | 0.187 | 0.356 | 0.136 | 0.157 | 0.0926 | 0.115 | 0.213 | 0.204 | 0.139 | 0.0458 | 0.149 | 0.233 | -0.0643 | -0.0412 | -0.0059 | -0.0532 | -0.0582 | -0.0332 | -0.0404
C[C@@H](c1ccc2nccn2c1)n1nnc2ncc(-c3cnn(C)c3)nc21 [Savolitinib] + CC1(C)CCC(CN2CCN(c3ccc(C(=O)NS(=O)(=O)c4ccc(NCC5CCOCC5)c([N+](=O)[O-])c4)c(Oc4cnc5[nH]ccc5c4)c3)CC2)=C(c2ccc(Cl)cc2)C1 [Venetoclax] (first compound max 1 µM, 7x7, partner max 1 µM) | 0.0719 | 0.0801 | 0.188 | 0.204 | 0.0492 | 0.305 | 0.114 | 0.152 | 0.0973 | 0.164 | 0.125 | 0.0925 | 0.251 | -0.0419 | -0.0228 | 0.0452 | -0.0126 | -0.0267 | -0.0378 | -0.0843
C[C@@H](c1ccc2nccn2c1)n1nnc2ncc(-c3cnn(C)c3)nc21 [Savolitinib] + Cc1c2c(nn1C)CSCc1cc(n(C)n1)CSc1cc(c3ccccc3c1)OCCCc1c(C(=O)O)n(C)c3c-2c(Cl)ccc13 [AZD5991] (first compound max 1 µM, 7x7, partner max 1 µM) | 0.169 | 0.0543 | 0.575 | 0.283 | 0.0743 | 0.317 | 0.195 | 0.22 | 0.211 | 0.213 | 0.971 | 0.187 | 0.0581 | -0.0252 | -0.0243 | 0.0478 | -0.0046 | -0.0402 | -0.0315 | -0.074

— the supplement of paper PMC11061612
